Laboratory results: patent publication US20240252454A1, “COMPOSITION COMPRISING AN INHIBITOR OF MITOCHONDRIAL TRANSCRIPTION” (LEAD DISCOVERY CENTER GMBH, priority 2021, published 2024)

Assays:
Assay in all cases: SRB assay, IMT combined with inhibitor
Format in all cases: cell-based
A673 = A673 (muscle); concentration series of the labelled inhibitor + fixed concentration of IMT (3S)-1-[(2R)-2-[4-(2-chloro-4-fluoro-phenyl)-2-oxo-chromen-7-yl]oxypropanoyl]piperidine-3-carboxylic acid (Table 3: 40 nM, 120 h); negative=synergistic, positive=antagonistic
In short: (§1)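 Combination growth assay: MAPK signalling SOC titration on a background of 40 nM chromenone piperidine-3-carboxylic acid, 120 h, physiological 5 mM glucose, SRB read-out relative to untreated cells.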

CALU6 = CALU6 (lung); concentration series of the labelled inhibitor + fixed concentration of IMT (3S)-1-[(2R)-2-[4-(2-chloro-4-fluoro-phenyl)-2-oxo-chromen-7-yl]oxypropanoyl]piperidine-3-carboxylic acid (Table 3: 40 nM, 120 h); negative=synergistic, positive=antagonistic
In short: as §1

COLO205 = COLO205 (colon); concentration series of the labelled inhibitor + fixed concentration of IMT (3S)-1-[(2R)-2-[4-(2-chloro-4-fluoro-phenyl)-2-oxo-chromen-7-yl]oxypropanoyl]piperidine-3-carboxylic acid (Table 3: 40 nM, 120 h); negative=synergistic, positive=antagonistic
In short: as §1

GRANTA-519 = GRANTA-519 (hematological); concentration series of the labelled inhibitor + fixed concentration of IMT (3S)-1-[(2R)-2-[4-(2-chloro-4-fluoro-phenyl)-2-oxo-chromen-7-yl]oxypropanoyl]piperidine-3-carboxylic acid (Table 3: 40 nM, 120 h); negative=synergistic, positive=antagonistic
In short: as §1

HCT15 = HCT15 (colon); concentration series of the labelled inhibitor + fixed concentration of IMT (3S)-1-[(2R)-2-[4-(2-chloro-4-fluoro-phenyl)-2-oxo-chromen-7-yl]oxypropanoyl]piperidine-3-carboxylic acid (Table 3: 40 nM, 120 h); negative=synergistic, positive=antagonistic
In short: as §1

HEPG2 = HEPG2 (liver); concentration series of the labelled inhibitor + fixed concentration of IMT (3S)-1-[(2R)-2-[4-(2-chloro-4-fluoro-phenyl)-2-oxo-chromen-7-yl]oxypropanoyl]piperidine-3-carboxylic acid (Table 3: 40 nM, 120 h); negative=synergistic, positive=antagonistic
In short: as §1

HT29 = HT29 (colon); concentration series of the labelled inhibitor + fixed concentration of IMT (3S)-1-[(2R)-2-[4-(2-chloro-4-fluoro-phenyl)-2-oxo-chromen-7-yl]oxypropanoyl]piperidine-3-carboxylic acid (Table 3: 40 nM, 120 h); negative=synergistic, positive=antagonistic
In short: as §1

IMR90 = IMR90 (lung); concentration series of the labelled inhibitor + fixed concentration of IMT (3S)-1-[(2R)-2-[4-(2-chloro-4-fluoro-phenyl)-2-oxo-chromen-7-yl]oxypropanoyl]piperidine-3-carboxylic acid (Table 3: 40 nM, 120 h); negative=synergistic, positive=antagonistic
In short: as §1

MHHES1 = MHHES1 (bone); concentration series of the labelled inhibitor + fixed concentration of IMT (3S)-1-[(2R)-2-[4-(2-chloro-4-fluoro-phenyl)-2-oxo-chromen-7-yl]oxypropanoyl]piperidine-3-carboxylic acid (Table 3: 40 nM, 120 h); negative=synergistic, positive=antagonistic
In short: as §1

MIAPACA2 = MIAPACA2 (pancreas); concentration series of the labelled inhibitor + fixed concentration of IMT (3S)-1-[(2R)-2-[4-(2-chloro-4-fluoro-phenyl)-2-oxo-chromen-7-yl]oxypropanoyl]piperidine-3-carboxylic acid (Table 3: 40 nM, 120 h); negative=synergistic, positive=antagonistic
In short: as §1

NCIH460 = NCIH460 (lung); concentration series of the labelled inhibitor + fixed concentration of IMT (3S)-1-[(2R)-2-[4-(2-chloro-4-fluoro-phenyl)-2-oxo-chromen-7-yl]oxypropanoyl]piperidine-3-carboxylic acid (Table 3: 40 nM, 120 h); negative=synergistic, positive=antagonistic
In short: as §1

SKMEL28 = SKMEL28 (skin); concentration series of the labelled inhibitor + fixed concentration of IMT (3S)-1-[(2R)-2-[4-(2-chloro-4-fluoro-phenyl)-2-oxo-chromen-7-yl]oxypropanoyl]piperidine-3-carboxylic acid (Table 3: 40 nM, 120 h); negative=synergistic, positive=antagonistic
In short: as §1

SKMEL5 = SKMEL5 (skin); concentration series of the labelled inhibitor + fixed concentration of IMT (3S)-1-[(2R)-2-[4-(2-chloro-4-fluoro-phenyl)-2-oxo-chromen-7-yl]oxypropanoyl]piperidine-3-carboxylic acid (Table 3: 40 nM, 120 h); negative=synergistic, positive=antagonistic
In short: as §1

SKOV3 = SKOV3 (ovary); concentration series of the labelled inhibitor + fixed concentration of IMT (3S)-1-[(2R)-2-[4-(2-chloro-4-fluoro-phenyl)-2-oxo-chromen-7-yl]oxypropanoyl]piperidine-3-carboxylic acid (Table 3: 40 nM, 120 h); negative=synergistic, positive=antagonistic
In short: as §1

Compound	difference between the calculated combinatorial index (BLISS) and the observed combinatorial effect (A673)	difference between the calculated combinatorial index (BLISS) and the observed combinatorial effect (CALU6)	difference between the calculated combinatorial index (BLISS) and the observed combinatorial effect (COLO205)	difference between the calculated combinatorial index (BLISS) and the observed combinatorial effect (GRANTA-519)	difference between the calculated combinatorial index (BLISS) and the observed combinatorial effect (HCT15)	difference between the calculated combinatorial index (BLISS) and the observed combinatorial effect (HEPG2)	difference between the calculated combinatorial index (BLISS) and the observed combinatorial effect (HT29)	difference between the calculated combinatorial index (BLISS) and the observed combinatorial effect (IMR90)	difference between the calculated combinatorial index (BLISS) and the observed combinatorial effect (MHHES1)	difference between the calculated combinatorial index (BLISS) and the observed combinatorial effect (MIAPACA2)	difference between the calculated combinatorial index (BLISS) and the observed combinatorial effect (NCIH460)	difference between the calculated combinatorial index (BLISS) and the observed combinatorial effect (SKMEL28)	difference between the calculated combinatorial index (BLISS) and the observed combinatorial effect (SKMEL5)	difference between the calculated combinatorial index (BLISS) and the observed combinatorial effect (SKOV3)
O=C(c1ccc(F)c(F)c1Nc1ccc(I)cc1F)N1CC(O)([C@@H]2CCCCN2)C1 [Cobimetinib]	0.0185	0.0286	0.0185	−0.0008	0.0539	−0.0133	0.0382	−0.0073	−0.0055	−0.0673	−0.0338	−0.0040	−0.0872	0.0499
CC(C)(C)c1nc(-c2cccc(NS(=O)(=O)c3c(F)cccc3F)c2F)c(-c2ccnc(N)n2)s1 [Dabrafenib]	−0.0146	−0.0342	−0.0114	−0.0357	0.0551	−0.1427	0.0360	−0.0104	−0.0230	0.0508	−0.0275	0.0194	−0.0987	0.0282
O=C(NOC[C@H](O)CO)c1ccc(F)c(F)c1Nc1ccc(I)cc1F [PD 0325901, (R)—N-(2,3-dihydroxypropoxy)-3,4-difluoro-2-((2-fluoro-4-iodophenyl)amino)benzamide]	0.0281	0.0809	0.0261	0.0420	0.1249	0.0334	0.0786	0.0387	0.0437	0.0500	0.0200	0.0303	0.0095	−0.0555
Cn1cnc2c(F)c(Nc3ccc(Br)cc3Cl)c(C(=O)NOCCO)cc21 [Selumetinib]	0.0313	0.0376	0.0142	0.0050	0.0320	0.0032	0.0236	−0.0291	0.0218	−0.0734	−0.0276	0.0096	−0.0968	0.0622
CC(=O)Nc1cccc(-n2c(=O)n(C3CC3)c(=O)c3c(Nc4ccc(I)cc4F)n(C)c(=O)c(C)c32)c1 [Trametinib]	0.0225	−0.0308	0.0319	−0.0185	0.0677	0.0351	0.0338	0.0533	0.0760	0.1602	0.0180	0.0296	0.0072	−0.0444
